System: MV-4-11 cells
Test: Gene expression microarray analysis (Affymetrix PrimeView) and GSEA
Assay type: cell-based, human
Set-up: RFU PODN (11730768_x_at) / Fold change /veh PODN (11730768_x_at) / RFU LINC00158 (11744669_a_at) / Fold change /veh LINC00158 (11744669_a_at) / RFU DUSP10 (11751237_a_at) / Fold change /veh DUSP10 (11751237_a_at) / RFU ID3 (11757404_x_at) / Fold change /veh ID3 (11757404_x_at) / RFU PLEKHG5 (11737974_s_at) / Fold change /veh PLEKHG5 (11737974_s_at) / RFU LRRC4B (11730491_at) / Fold change /veh LRRC4B (11730491_at) / RFU GIMAP4 (11747438_a_at) / Fold change /veh GIMAP4 (11747438_a_at) / RFU KRT8 (11758183_x_at) / Fold change /veh KRT8 (11758183_x_at) / RFU CNN1 (11734310_a_at) / Fold change /veh CNN1 (11734310_a_at) / RFU VPS37D (11726825_at) / Fold change /veh VPS37D (11726825_at) / RFU C10orf10 (11716522_x_at) / Fold change /veh C10orf10 (11716522_x_at) / RFU KIR2DL2 /// KIR2DL4 /// KIR2DL5A /// KIR2DL5B /// KIR2DS1 /// KIR2DS2 /// KIR2DS3 /// KIR2DS4 /// KIR3DL3 /// KIR3DL3 /// KIR3DS1 (11738374_at) / Fold change /veh KIR2DL2 /// KIR2DL4 /// KIR2DL5A /// KIR2DL5B /// KIR2DS1 /// KIR2DS2 /// KIR2DS3 /// KIR2DS4 /// KIR3DL3 /// KIR3DL3 /// KIR3DS1 (11738374_at) / RFU C1QL1 (11718748_at) / Fold change /veh C1QL1 (11718748_at) / RFU TMPRSS4 (11747572_a_at) / Fold change /veh TMPRSS4 (11747572_a_at) / RFU HAMP (11756126_x_at) / Fold change /veh HAMP (11756126_x_at) / RFU RNFT2 (11725882_a_at) / Fold change /veh RNFT2 (11725882_a_at) / RFU NR4A2 (11747474_a_at) / Fold change /veh NR4A2 (11747474_a_at) / RFU ABCC12 (11746883_a_at) / Fold change /veh ABCC12 (11746883_a_at) / RFU TMEM136 (11760407_x_at) / Fold change /veh TMEM136 (11760407_x_at) / RFU CLDN22 /// WWC2 (11732394_at) / Fold change /veh CLDN22 /// WWC2 (11732394_at) / RFU HLA-DPB1 (11760878_x_at) / Fold change /veh HLA-DPB1 (11760878_x_at) / RFU SPINT1 (11716480_a_at) / Fold change /veh SPINT1 (11716480_a_at) / RFU GAP43 (11754022_s_at) / Fold change /veh GAP43 (11754022_s_at) / RFU A4GNT (11735810_at) / Fold change /veh A4GNT (11735810_at) / RFU PRB3 (11715151_x_at) / Fold change /veh PRB3 (11715151_x_at) / RFU TUBB4B (11761932_at) / Fold change /veh TUBB4B (11761932_at) / RFU CAPN14 (11732068_a_at) / Fold change /veh CAPN14 (11732068_a_at) / RFU TMCC2 (11721928_a_at) / Fold change /veh TMCC2 (11721928_a_at) / RFU IRGQ (11745062_a_at) / Fold change /veh IRGQ (11745062_a_at) / RFU FAM174B (11720279_a_at) / Fold change /veh FAM174B (11720279_a_at) / RFU TMPRSS4 (11748680_a_at) / Fold change /veh TMPRSS4 (11748680_a_at) / RFU FAM212B (11763350_a_at) / Fold change /veh FAM212B (11763350_a_at) / RFU PLEKHG5 (11743358_a_at) / Fold change /veh PLEKHG5 (11743358_a_at) / RFU ZSCAN30 (11745921_a_at) / Fold change /veh ZSCAN30 (11745921_a_at) / RFU CMKLR1 (11741424_a_at) / Fold change /veh CMKLR1 (11741424_a_at) / RFU LOC101060620 /// MAPK8IP1 (11723275_at) / Fold change /veh LOC101060620 /// MAPK8IP1 (11723275_at) / RFU SPTSSB (11747773_x_at) / Fold change /veh SPTSSB (11747773_x_at) / RFU PRSS12 (11739890_at) / Fold change /veh PRSS12 (11739890_at) / RFU BIN1 (11741810_x_at) / Fold change /veh BIN1 (11741810_x_at) / RFU WNT11 (11732464_a_at) / Fold change /veh WNT11 (11732464_a_at) / RFU C10orf10 (11716521_a_at) / Fold change /veh C10orf10 (11716521_a_at) / RFU C5orf56 (11738089_at) / Fold change /veh C5orf56 (11738089_at) / RFU CYB561 (11721691_x_at) / Fold change /veh CYB561 (11721691_x_at) / RFU ANKRD19P (11752326_a_at) / Fold change /veh ANKRD19P (11752326_a_at) / RFU OR2T12 /// OR2T33 /// OR2T8 (11738714_s_at) / Fold change /veh OR2T12 /// OR2T33 /// OR2T8 (11738714_s_at) / RFU VCAN (11748164_a_at) / Fold change /veh VCAN (11748164_a_at) / RFU JSRP1 (11732532_at) / Fold change /veh JSRP1 (11732532_at) / RFU KRTAP10-11 (11738290_x_at) / Fold change /veh KRTAP10-11 (11738290_x_at) / RFU MYO3A (11730013_a_at) / Fold change /veh MYO3A (11730013_a_at) / RFU EBF3 (11725865_a_at) / Fold change /veh EBF3 (11725865_a_at) / RFU CAMK2N1 (11719241_x_at) / Fold change /veh CAMK2N1 (11719241_x_at) / RFU C5orf56 (11738088_a_at) / Fold change /veh C5orf56 (11738088_a_at) / RFU OLFML3 (11715873_a_at) / Fold change /veh OLFML3 (11715873_a_at) / RFU LOC100653217 /// NTM (11731650_a_at) / Fold change /veh LOC100653217 /// NTM (11731650_a_at) / RFU MAPK11 (11762145_a_at) / Fold change /veh MAPK11 (11762145_a_at) / RFU FIZ1 (11724087_x_at) / Fold change /veh FIZ1 (11724087_x_at) / RFU OASL (11726364_x_at) / Fold change /veh OASL (11726364_x_at) / RFU SOX15 (11748057_x_at) / Fold change /veh SOX15 (11748057_x_at) / RFU CD79A (11719716_a_at) / Fold change /veh CD79A (11719716_a_at) / RFU HIST1H1D (11736915_at) / Fold change /veh HIST1H1D (11736915_at) / RFU CASKIN2 (11723855_a_at) / Fold change /veh CASKIN2 (11723855_a_at) / RFU LOC730098 (11760151_x_at) / Fold change /veh LOC730098 (11760151_x_at) / RFU OR4N2 (11742367_at) / Fold change /veh OR4N2 (11742367_at) / RFU PRRT2 (11749266_a_at) / Fold change /veh PRRT2 (11749266_a_at) / RFU SNX32 (11753110_a_at) / Fold change /veh SNX32 (11753110_a_at) / RFU CDHR5 (11726645_a_at) / Fold change /veh CDHR5 (11726645_a_at) / RFU RCAN1 (11760418_a_at) / Fold change /veh RCAN1 (11760418_a_at) / RFU FAM167A (11723789_a_at) / Fold change /veh FAM167A (11723789_a_at) / RFU FAM26E (11764081_at) / Fold change /veh FAM26E (11764081_at) / RFU ISYNA1 (11749810_s_at) / Fold change /veh ISYNA1 (11749810_s_at) / RFU ACY1 (11761880_at) / Fold change /veh ACY1 (11761880_at) / RFU 11764098_at / Fold change /veh 11764098_at / RFU SAMD14 (11745864_x_at) / Fold change /veh SAMD14 (11745864_x_at) / RFU NPB (11741838_a_at) / Fold change /veh NPB (11741838_a_at) / RFU TMPRSS6 (11731388_a_at) / Fold change /veh TMPRSS6 (11731388_a_at) / RFU KRTAP10-2 (11738614_at) / Fold change /veh KRTAP10-2 (11738614_at) / RFU ARHGAP8 /// PRR5-ARHGAP8 (11727945_x_at) / Fold change /veh ARHGAP8 /// PRR5-ARHGAP8 (11727945_x_at) / RFU KRTAP5-7 /// NADSYN1 (11734609_at) / Fold change /veh KRTAP5-7 /// NADSYN1 (11734609_at) / RFU RASL12 (11751679_a_at) / Fold change /veh RASL12 (11751679_a_at) / RFU CDKN2B (11736163_a_at) / Fold change /veh CDKN2B (11736163_a_at) / RFU PRF1 (11729649_at) / Fold change /veh PRF1 (11729649_at) / RFU, ZNF638 /// ZNF638-IT1 / Fold change vs veh, ZNF638 /// ZNF638-IT1 / RFU, PANK3 / Fold change vs veh, PANK3 / RFU, SH3YL1 / Fold change vs veh, SH3YL1 / RFU, ZEB2 / Fold change vs veh, ZEB2 / RFU, NRIP1 / Fold change vs veh, NRIP1 / RFU, PTTG1IP / Fold change vs veh, PTTG1IP / RFU, CAPN2 / Fold change vs veh, CAPN2 / RFU, MED14 / Fold change vs veh, MED14 / RFU, SNORA58 / Fold change vs veh, SNORA58 / RFU, C1orf63 / Fold change vs veh, C1orf63 / RFU, LRRFIP1 / Fold change vs veh, LRRFIP1 / RFU, NDUFAF7 / Fold change vs veh, NDUFAF7 / RFU, SLC12A2 / Fold change vs veh, SLC12A2 / RFU, IBTK / Fold change vs veh, IBTK / RFU, ESF1 / Fold change vs veh, ESF1 / Fold change vs veh, TMEM50B / RFU, TAOK1 / Fold change vs veh, TAOK1 / RFU, ACBD3 / Fold change vs veh, ACBD3 / RFU, TMA16 / Fold change vs veh, TMA16 / RFU, RWDD3 / Fold change vs veh, RWDD3 / RFU, BCAT1 / Fold change vs veh, BCAT1 / RFU, EDEM3 / Fold change vs veh, EDEM3 / RFU, TMEM33 / Fold change vs veh, TMEM33 / RFU, WDR75 / Fold change vs veh, WDR75 / RFU, AHCTF1 / Fold change vs veh, AHCTF1 / RFU, TFRC / Fold change vs veh, TFRC / RFU, ZDHHC17 / Fold change vs veh, ZDHHC17 / RFU, NOM1 / Fold change vs veh, NOM1 / RFU, ARL8B / Fold change vs veh, ARL8B / RFU, ZBTB11 / Fold change vs veh, ZBTB11 / RFU, TAMM41 / Fold change vs veh, TAMM41 / RFU, KIAA1704 /// LOC100996395 / Fold change vs veh, KIAA1704 /// LOC100996395 / RFU, ING1 / Fold change vs veh, ING1 / RFU, TRMT61B / Fold change vs veh, TRMT61B / RFU, FUBP3 / Fold change vs veh, FUBP3 / RFU, TP53 / Fold change vs veh, TP53 / RFU, TNKS2 / Fold change vs veh, TNKS2 / RFU, ZFP14 / Fold change vs veh, ZFP14 / RFU, ACTR2 / Fold change vs veh, ACTR2 / RFU, PPP3R1 / Fold change vs veh, PPP3R1 / RFU, PIK3R1 / Fold change vs veh, PIK3R1 / RFU, HNRNPA1 / Fold change vs veh, HNRNPA1 / RFU, RNF170 / Fold change vs veh, RNF170 / RFU, ZNF28 / Fold change vs veh, ZNF28 / RFU, RNGTT / Fold change vs veh, RNGTT / RFU, OGT / Fold change vs veh, OGT / RFU, BRD1 / Fold change vs veh, BRD1 / RFU, MARS / Fold change vs veh, MARS / RFU, ZNF655 / Fold change vs veh, ZNF655 / RFU, FAHD1 / Fold change vs veh, FAHD1 / RFU, BDP1 / Fold change vs veh, BDP1 / RFU, LRRCC1 / Fold change vs veh, LRRCC1 / RFU, ARID1A / Fold change vs veh, ARID1A / RFU, ZNF146 / Fold change vs veh, ZNF146 / RFU, ZNF330 / Fold change vs veh, ZNF330 / RFU, GPN3 / Fold change vs veh, GPN3 / RFU, C9orf123 / Fold change vs veh, C9orf123 / RFU, N4BP2L2 / Fold change vs veh, N4BP2L2 / RFU, ARFIP1 / Fold change vs veh, ARFIP1 / RFU, FAM179B / Fold change vs veh, FAM179B / RFU, BCL10 / Fold change vs veh, BCL10 / RFU, UHRF1BP1L / Fold change vs veh, UHRF1BP1L / RFU, BET1 / Fold change vs veh, BET1 / RFU, CNOT2 / Fold change vs veh, CNOT2 / RFU, ZNF268 / Fold change vs veh, ZNF268 / Fold change vs veh, ZNF507 / RFU, DGCR2 / Fold change vs veh, DGCR2 / RFU, WDSUB1 / Fold change vs veh, WDSUB1 / Fold change vs veh, HSP90B1 /// MIR3652 / RFU, ADSS / Fold change vs veh, ADSS / RFU, GK / Fold change vs veh, GK / RFU, ZNF148 / Fold change vs veh, ZNF148 / RFU, TAF9 / Fold change vs veh, TAF9 / RFU, SLC1A5 / Fold change vs veh, SLC1A5 / RFU, SLMO2 / Fold change vs veh, SLMO2 / RFU, ABCC4 / Fold change vs veh, ABCC4 / RFU, LOC101060439 /// RAP1B / Fold change vs veh, LOC101060439 /// RAP1B / RFU, RFX7 / Fold change vs veh, RFX7 / RFU, GTPBP10 / Fold change vs veh, GTPBP10 / RFU, CNEP1R1 / Fold change vs veh, CNEP1R1 / RFU, BIVM-ERCC5 /// ERCC5 / Fold change vs veh, BIVM-ERCC5 /// ERCC5 / RFU, ILF3 / Fold change vs veh, ILF3 / RFU 11762660_at / Fold change /veh 11762660_at / RFU VCAN (11757783_s_at) / Fold change /veh VCAN (11757783_s_at) / RFU DDX43 (11728927_at) / Fold change /veh DDX43 (11728927_at) / RFU KRT8 (11758188_x_at) / Fold change /veh KRT8 (11758188_x_at) / RFU NKD1 (11759106_at) / Fold change /veh NKD1 (11759106_at) / RFU SRD5A1 (11742802_a_at) / Fold change /veh SRD5A1 (11742802_a_at) / RFU TPSAB1 /// TPSB2 (11721975_s_at) / Fold change /veh TPSAB1 /// TPSB2 (11721975_s_at) / RFU GSTM3 (11746129_a_at) / Fold change /veh GSTM3 (11746129_a_at) / RFU IL23R (11737362_x_at) / Fold change /veh IL23R (11737362_x_at) / RFU TMEM51 (11727254_a_at) / Fold change /veh TMEM51 (11727254_a_at) / RFU PIWIL2 (11732686_x_at) / Fold change /veh PIWIL2 (11732686_x_at) / RFU ORM1 (11744905_x_at) / Fold change /veh ORM1 (11744905_x_at) / RFU CCDC152 (11743942_at) / Fold change /veh CCDC152 (11743942_at) / RFU ECM1 (11717891_a_at) / Fold change /veh ECM1 (11717891_a_at) / RFU IL23R (11748794_a_at) / Fold change /veh IL23R (11748794_a_at) / RFU TNFAIP8L3 (11732012_x_at) / Fold change /veh TNFAIP8L3 (11732012_x_at) / RFU MBOAT4 (11741988_at) / Fold change /veh MBOAT4 (11741988_at) / RFU 11764193_at / Fold change /veh 11764193_at / RFU TMEM53 (11763286_at) / Fold change /veh TMEM53 (11763286_at) / RFU MAGEB2 (11727129_at) / Fold change /veh MAGEB2 (11727129_at) / RFU TMEM200A (11744735_a_at) / Fold change /veh TMEM200A (11744735_a_at) / RFU CCDC152 (11751479_a_at) / Fold change /veh CCDC152 (11751479_a_at) / RFU FAM211A (11726209_a_at) / Fold change /veh FAM211A (11726209_a_at) / RFU RGS16 (11746705_a_at) / Fold change /veh RGS16 (11746705_a_at) / RFU VCAN (11755009_s_at) / Fold change /veh VCAN (11755009_s_at) / RFU RHOB (11743442_s_at) / Fold change /veh RHOB (11743442_s_at) / RFU RGS16 (11720943_a_at) / Fold change /veh RGS16 (11720943_a_at) / RFU RGS16 (11720944_at) / Fold change /veh RGS16 (11720944_at) / RFU, VPS4B / Fold change vs veh, VPS4B / RFU, CREB1 / Fold change vs veh, CREB1 / RFU, DNAJC13 / Fold change vs veh, DNAJC13 / RFU, GNAQ / Fold change vs veh, GNAQ / RFU, CDK5R1 / Fold change vs veh, CDK5R1 / RFU, ZRANB3 / Fold change vs veh, ZRANB3 / RFU, CUL4A / Fold change vs veh, CUL4A / RFU, CCNY / Fold change vs veh, CCNY / RFU, UFL1 / Fold change vs veh, UFL1 / RFU, COG3 / Fold change vs veh, COG3 / RFU, DIAPH2 / Fold change vs veh, DIAPH2 / RFU, SKA2 / Fold change vs veh, SKA2 / RFU, AFF3 / Fold change vs veh, AFF3 / RFU, LMF1 / Fold change vs veh, LMF1 / RFU, IPO11 / Fold change vs veh, IPO11 / RFU, DFFB / Fold change vs veh, DFFB / RFU, FOXP1 / Fold change vs veh, FOXP1 / RFU, CARD8 / Fold change vs veh, CARD8 / RFU, STRN3 / Fold change vs veh, STRN3 / RFU, ADK / Fold change vs veh, ADK / RFU, RASSF2 / Fold change vs veh, RASSF2 / RFU, WIPF1 / Fold change vs veh, WIPF1 / RFU, LARP1B / Fold change vs veh, LARP1B / RFU, RASA1 / Fold change vs veh, RASA1 / RFU, RB1 / Fold change vs veh, RB1 / RFU, PPFIA1 / Fold change vs veh, PPFIA1 / RFU, MAT2A / Fold change vs veh, MAT2A / RFU, CCT5 / Fold change vs veh, CCT5 / RFU, WDR92 / Fold change vs veh, WDR92 / RFU, CUX1 / Fold change vs veh, CUX1 / RFU, TTC7A / Fold change vs veh, TTC7A / RFU, TMEM135 / Fold change vs veh, TMEM135 / RFU, DEPTOR / Fold change vs veh, DEPTOR / RFU, CPM / Fold change vs veh, CPM / RFU, DNAJB6 / Fold change vs veh, DNAJB6 / RFU, CACNA2D3 / Fold change vs veh, CACNA2D3 / RFU, DTX4 / Fold change vs veh, DTX4 / RFU, TFCP2 / Fold change vs veh, TFCP2 / RFU, GMCL1 /// GMCL1P1 / Fold change vs veh, GMCL1 /// GMCL1P1 / RFU, AEBP2 / Fold change vs veh, AEBP2 / RFU, SNHG1 /// SNORD22 /// SNORD25 /// SNORD26 /// SNORD27 /// SNORD28 /// SNORD29 /// SNORD31 / Fold change vs veh, SNHG1 /// SNORD22 /// SNORD25 /// SNORD26 /// SNORD27 /// SNORD28 /// SNORD29 /// SNORD31 / Fold change (Aza/veh), C12orf56 (ProbeSet 11735607_a_at) / Fold change (ACY-1035/veh), C12orf56 (ProbeSet 11735607_a_at) / Fold change (Aza/veh), FGFR1OP (ProbeSet 11751329_s_at) / Fold change (ACY-1035/veh), FGFR1OP (ProbeSet 11751329_s_at) / Fold change (Aza/veh), VPS36 (ProbeSet 11739960_a_at) / Fold change (ACY-1035/veh), VPS36 (ProbeSet 11739960_a_at) / RFU SYPL1 (11715823_x_at) / Fold change /veh SYPL1 (11715823_x_at) / RFU IGFBP7 (11715501_s_at) / Fold change /veh IGFBP7 (11715501_s_at) / RFU REEP3 (11722064_at) / Fold change /veh REEP3 (11722064_at) / RFU IGLL1 (11728026_x_at) / Fold change /veh IGLL1 (11728026_x_at): dose or concentration left out as unconfirmed
Conditions: MV-4-11 cells, 48 hours

Nc1ccc(-c2cccs2)cc1NC(=O)c1ccc2c(c1)cc(C1CC1)n2CCN1CCOCC1 [ACY-1035]
RFU IRGQ (11745062_a_at): 18.74 RFU
